9 molecules from patent publication US20190187155A1, “COMPOSITION AND METHODS FOR MEASURING ION CHANNEL ACTIVITY IN A CELL” (LIFE TECHNOLOGIES CORPORATION, priority 2016, published 2019) can be followed below.

The data set relates to CHO cells expressing the hERG ion channel. Description: Thallium influx assay of cells expressing the hERG potassium ion channel, loaded with thallium ion indicator. The class given is cell-based. To be noted: for Fold Increase Over Baseline (fluorogenic response): loaded 60 minutes, potassium 10 mM; for Fold Increase Over Baseline (fluorogenic response) / detection of thallium ions (fluorescence dF/F over time): final thallium 2 mM; for change of fold increase (fluorogenic response) with dye loading concentration: dye concentration increased from 1 μM to 2 μM; for detection of thallium ions (fluorescence dF/F over time) / response (signal amplitude) post stimulus, Compound 8 relative to Compound 9: FIG. 10, average of 5-10 wells; for response (signal amplitude) post stimulus, Compound 8 relative to Compound 9: fold increase in signal post stimulus over baseline. On the procedure: Component A: Thallium ion indicator dye in amount that will prepare 1-10 uM solution in normal Chloride Assay Buffer. Component B: Physiological (normal) Chloride Assay Buffer: NaCl 145 mM; KCl 2.5 mM; CaCl2 1.8 mM; MgCl2 1.0 mM; HEPES 20 mM; pH set to 7.4 with NaOH. Component C: Chloride Free Stimulus Buffer: 140 mM Na Gluconate; 2.5 mM K Gluconate; 1.8 […] Ca Gluconate; 1.0 mM Mg Gluconate; 10 mM HEPES; 25 mM K2SO4; 5.0 mM Tl2SO4.
Cells including an ion channel are cultured to about 75% confluence and in log-phase growth. The cells are then harvested using well-known cell culture techniques and buffers and replated into a 96 well plate at a density of, for example, 5,000-40,000 cells per well (e.g., 20,000 cells per well). The cells comprise the ion channel endogenously, or the cells can be engineered to comprise ion channels of a particular type. Methods of transfecting and/or transforming cells to express a particular type of protein are well known in the art and need not be repeated herein.
To prepare the dye loading buffer, Component A is prepared in assay buffer (Component B) at concentrations from 1-20 micromolar. Optional addition of 1-100 μg/mL Pluronic surfactant can aid-in dispersion and loading of dye and/or 1-10 mM probenecid to aid in retention of the dye. Next the cell culture media is aspirated from the cells in the 96 well plate and replaced with dye loading buffer and incubated at room temperature for 60-120 minutes. While the cells are incubating in loading buffer, stimulus buffer (Component C) is prepared for addition to the microplate. The loading buffer then is removed from the cells, and replaced with […] that contains no dye, to reduce background fluorescence from unincorporated dye in the solution. Next, the fluorescence from the cells is read on a spectrophotometer. For samples implementing a thallium indicator that emits in the green spectral region, the sample is excited with light in the range of 470-500 nm, and emission is read at 520 to 540 nm, with a filter cutoff of 515 nm. For samples implementing a thallium indicator that emits in the red spectral region, the sample is excited with light in the range of 545-565 nm and read at 580-600 nm, with a filter cutoff of 570 nm. A pre-stimulus “baseline” signal is measured at regular intervals for 10-30 seconds in advance of adding Stimulus Buffer (Component C). Component C is added to the cells in a 1:5 dilution at the indicated time, and the increase in fluorescence from the cells is measured over time.
Cells expressing the hERG potassium ion channel were assayed using the method described in Example 10 to compare the efficacy of two different isomeric thallium ion indicators. CHO cells expressing the hERG ion channel were assayed using methods described herein. Cells were loaded in assay buffer containing the indicated concentration of dye in Table 1 (i.e., 1 or 10 μM) washed with dye-free assay buffer (Component B) and the stimulus buffer (Component C) was delivered to the cells in a volume of 25 μL, added to 100 μL for a 5× dilution (Component C, containing 25 mM T K2SO4 and […]). In this particular example, the final concentration of potassium on the cells was 10 mM and the final concentration of thallium on the cells was 2 mM. […] Fluorescence data from the samples was plotted over time as fold increase in signal (post stimulus) over baseline (pre stimulus). Signal amplitude was compared from an average of 5-10 individual wells loaded with the dye indicated.
Cells expressing the hERG potassium ion channel were assayed using the thallium influx method described in Example 11 to compare the efficacy of various thallium ion indicators disclosed herein. Thallium indicators were prepared in loading buffer at the concentrations listed in Table 1 and loaded into cells for 60 minutes. […]
Background: Block of hERG is tested as a sign of cardiac risk.

Where [1] appears, read: dye loading concentration 1 μM, excitation 470-500 nm, emission 520-540 nm.
The mark [2] stands for this setting: dye loading concentration 2 μM, excitation 470-500 nm, emission 520-540 nm.

`COc1cc(-c2c3ccc(=[N+](C)C)cc-3oc3cc(N(C)C)ccc23)ccc1N(CC(=O)OCOC(C)=O)CC(=O)OCOC(C)=O.[Br-]` [Compound 1, N-(9-(4-(bis(2-(acetoxymethoxy)-2-oxoethyl)amino)-3-methoxyphenyl)-6-(dimethylamino)-3H-xanthen-3-ylidene)-N-methylmethanaminium bromide]: under “dye loading concentration 10 μM, excitation 545-565 nm, emission 580-600 nm”, the “Fold Increase Over Baseline (fluorogenic response)” value (from here on “Fold Increase Over Baseline”) amounted to 2.7 fold.
As to `COc1ccc(NC(=O)c2ccc3c(c2)C(=O)OC32c3ccc(OC(C)=O)cc3Oc3cc(OC(C)=O)ccc32)cc1N(CC(=O)OCOC(C)=O)CC(=O)OCOC(C)=O` [Compound 2, bis(acetoxymethyl) 2,2′-((5-(3′,6′-diacetoxy-3-oxo-3H-spiro[isobenzofuran-1,9′-xanthene]-5-carboxamido)-2-methoxyphenyl)azanediyl)diacetate], the “change of fold increase (fluorogenic response) with dye loading concentration” value (from here on “change of fold increase”) is “little to no change”. For the same molecule, under setting [1], the “Fold Increase Over Baseline” value was found to be 1.2 fold. In addition, the “Fold Increase Over Baseline” value under setting [2] turned out to be 1.3 fold.
With `COc1ccc(NC(=O)c2ccc3c(c2)C2(OC3=O)c3ccc(OC(C)=O)cc3Oc3cc(OC(C)=O)ccc32)cc1N(CC(=O)OCOC(C)=O)CC(=O)OCOC(C)=O` [Compound 3, bis(acetoxymethyl) 2,2′-((5-(3′,6′-diacetoxy-3-oxo-3H-spiro[isobenzofuran-1,9′-xanthene]-6-carboxamido)-2-methoxyphenyl)azanediyl)diacetate], the “Fold Increase Over Baseline” value under setting [1] is recorded as 1.1 fold and the Fold Increase Over Baseline (fluorogenic response) under setting [2] amounted to 0.8 fold.
Taken in the same sequence, the figures for `COc1ccc(NC(=O)c2ccc3c(c2)C2(OC3=O)c3cc(F)c(OC(C)=O)cc3Oc3cc(OC(C)=O)c(F)cc32)cc1N(CC(=O)OCOC(C)=O)CC(=O)OCOC(C)=O` [Compound 4, bis(acetoxymethyl) 2,2′-((5-(3′,6′-diacetoxy-2′,7′-difluoro-3-oxo-3H-spiro[isobenzofuran-1,9′-xanthene]-6-carboxamido)-2-methoxyphenyl)azanediyl)diacetate] were 1.5 fold and 1.4 fold.
For the molecule `COc1cc(NC(=O)c2ccc3c(c2)C(=O)OC32c3ccc(OC(C)=O)cc3Oc3cc(OC(C)=O)ccc32)ccc1N(CC(=O)OCOC(C)=O)CC(=O)OCOC(C)=O` [Compound 5, bis(acetoxymethyl) 2,2′-((4-(3′,6′-diacetoxy-3-oxo-3H-spiro[isobenzafuran-1,9′-xanthene]-5-carboxamido)-2-methoxyphenyl)azanediyl)diacetate], the “change of fold increase” value is reported as “decreased significantly”. Further, the “Fold Increase Over Baseline” value under setting [1] came out at 3.7 fold. Also, the “Fold Increase Over Baseline” value under setting [2] worked out at 3.1 fold.
For `COc1cc(NC(=O)c2ccc3c(c2)C2(OC3=O)c3ccc(OC(C)=O)cc3Oc3cc(OC(C)=O)ccc32)ccc1N(CC(=O)OCOC(C)=O)CC(=O)OCOC(C)=O` [Compound 6, bis(acetoxymethyl) 2,2′-((4-(3′,6′-diacetoxy-3-oxo-3H-spiro[isobenzofuran-1,9′-xathene]-6-carboxamido)-2-methoxyphenyl)azanediyl)diacetate], the “Fold Increase Over Baseline” value is recorded as 3.7 fold under setting [1] and 2.8 fold under setting [2].
The like results for `COc1cc(NC(=O)c2ccc3c(c2)C2(OC3=O)c3cc(F)c(OC(C)=O)cc3Oc3cc(OC(C)=O)c(F)cc32)ccc1N(CC(=O)OCOC(C)=O)CC(=O)OCOC(C)=O` [Compound 7, bis(acetoxymethyl) 2,2′-((4-(3′,6′-diacetoxy-2′,7′-difluroro-3-oxo-3H-spiro[isobenzofuran-1,9′-xanthene]-6-carboxamido)-2-methoxyphenyl)azanediyl)diacetate] were, in that order, 2.3 fold and 1.5 fold.
Take `COc1cc(NC(=O)c2ccc3c(c2)C(=O)OC32c3cc(F)c(OC(C)=O)cc3Oc3cc(OC(C)=O)c(F)cc32)ccc1N(CC(=O)OCOC(C)=O)CC(=O)OCOC(C)=O` [Compound 8, bis(acetoxymethyl) 2,2′-((4-(3′,6′-diacetoxy-2′,7′-difluoro-3-oxo-3H-spiro[isobenzofuran-1,9′-xanthene]-5-carboxamido)-2-methoxyphenyl)azanediyl)diacetate]: the “detection of thallium ions (fluorescence dF/F over time)” value is recorded as “detected the presence of thallium ions”; the “response (signal amplitude) post stimulus, Compound 8 relative to Compound 9” value is listed as “far more sensitive to thallium ions than Compound 9”; the “change of fold increase” value was “not affected”. Moreover, the “response (signal amplitude) post stimulus, Compound 8 relative to Compound 9” value (listed as compound 8) was “larger response (signal amplitude)”. In addition, the “Fold Increase Over Baseline” value under setting [1] is 3.4 fold. Under setting [2], the “Fold Increase Over Baseline” value turned out to be 3.4 fold.
As to `COc1ccc(NC(=O)c2ccc3c(c2)C(=O)OC32c3cc(F)c(OC(C)=O)cc3Oc3cc(OC(C)=O)c(F)cc32)cc1N(CC(=O)OCOC(C)=O)CC(=O)OCOC(C)=O` [Compound 9, bis(acetoxymethyl) 2,2′-((5-(3′,6′-diacetoxy-2′,7′-difluoro-3-oxo-3H-spiro[isobenzofuran-1,9′-xanthene]-5-carboxamido)-2-methoxyphenyl)azanediyl)diacetate], the “detection of thallium ions (fluorescence dF/F over time)” value is on record as “detected the presence of thallium ions” and the “change of fold increase” value was “not affected”. In addition, the “Fold Increase Over Baseline” value under setting [1] was determined as 2.0 fold. Also, the “Fold Increase Over Baseline” value under setting [2] is listed as 2.0 fold.
